# Tests used:
# human JAK2 = biological target: T1, human JAK2 (Homo sapiens, UniProt O60674); assay: Alphascreen tyrosine kinase enzyme assay, JAK2 kinase domain; assay type: biochemical; conditions: read-out: JAK2 IC50_nM
# T1 construct: The kinase domain of human JAK2 was amplified; GST (N); made in house; host or cells: Sf9 insect cells (baculovirus)
# Summary of the method: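 JAK2 kinase domain expressed in baculovirus/Sf9 and glutathione-affinity purified. Compounds (final […]) pre-incubated 20 min with enzyme in 10 mM HEPES pH 7.5, MgCl2, NaCl, vanadate, 0.1% Tween 20.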
# human JAK3 = biological target: T2, human JAK3 (Homo sapiens, UniProt P52333); assay: Alphascreen tyrosine kinase enzyme assay, JAK3 kinase domain; assay type: biochemical; conditions: read-out: JAK3 IC50_nM
# T2 construct: The kinase domain of human JAK3 was amplified; GST (N); made in house; host or cells: Sf9 insect cells (baculovirus)
# T2 sequence (P52333 822-1111 limits assumed): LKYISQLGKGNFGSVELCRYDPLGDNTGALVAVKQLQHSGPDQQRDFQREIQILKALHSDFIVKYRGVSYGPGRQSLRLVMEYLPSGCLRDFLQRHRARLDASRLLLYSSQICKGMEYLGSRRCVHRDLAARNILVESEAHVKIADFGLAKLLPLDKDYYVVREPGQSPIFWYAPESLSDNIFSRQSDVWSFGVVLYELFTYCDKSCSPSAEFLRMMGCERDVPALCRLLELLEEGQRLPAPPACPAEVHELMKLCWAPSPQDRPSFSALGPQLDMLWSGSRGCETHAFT
# Summary of the method: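 GST-affinity-purified human JAK3 kinase domain (baculovirus/Sf9) was pre-incubated 20 min with compound ([…]) in HEPES pH 7.5 buffer with MgCl2, vanadate and Tween 20. Biotinylated peptide substrate ([…]) and ATP were then added; phosphotyrosine was detected by AlphaScreen PY100 acceptor and streptavidin donor beads after 2–3 h.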
# [1] = biological target: T3, BaF3 TELJAK2 cells (BafT_J2) (Homo sapiens, UniProt O60674); assay: Cellular screening, BaF3 TEL:JAK2 cells, Alamar Blue; assay type: cell-based; conditions: 40 hr, read-out: BafT_J2 IC50_nM
# T3 construct: fused on or other part: TEL (ETV6) N-terminal part, coding nucleotides 1-487, serves as the oligomerising partner; It is fused through a Sal I site to the JAK2 kinase domain and expressed from pTRE2 in BaF3 cells bearing pTET-off; P41212 (Transcription factor ETV6)
# T3 sequence (O60674 whole entry, change not shown, the tested form may be a part): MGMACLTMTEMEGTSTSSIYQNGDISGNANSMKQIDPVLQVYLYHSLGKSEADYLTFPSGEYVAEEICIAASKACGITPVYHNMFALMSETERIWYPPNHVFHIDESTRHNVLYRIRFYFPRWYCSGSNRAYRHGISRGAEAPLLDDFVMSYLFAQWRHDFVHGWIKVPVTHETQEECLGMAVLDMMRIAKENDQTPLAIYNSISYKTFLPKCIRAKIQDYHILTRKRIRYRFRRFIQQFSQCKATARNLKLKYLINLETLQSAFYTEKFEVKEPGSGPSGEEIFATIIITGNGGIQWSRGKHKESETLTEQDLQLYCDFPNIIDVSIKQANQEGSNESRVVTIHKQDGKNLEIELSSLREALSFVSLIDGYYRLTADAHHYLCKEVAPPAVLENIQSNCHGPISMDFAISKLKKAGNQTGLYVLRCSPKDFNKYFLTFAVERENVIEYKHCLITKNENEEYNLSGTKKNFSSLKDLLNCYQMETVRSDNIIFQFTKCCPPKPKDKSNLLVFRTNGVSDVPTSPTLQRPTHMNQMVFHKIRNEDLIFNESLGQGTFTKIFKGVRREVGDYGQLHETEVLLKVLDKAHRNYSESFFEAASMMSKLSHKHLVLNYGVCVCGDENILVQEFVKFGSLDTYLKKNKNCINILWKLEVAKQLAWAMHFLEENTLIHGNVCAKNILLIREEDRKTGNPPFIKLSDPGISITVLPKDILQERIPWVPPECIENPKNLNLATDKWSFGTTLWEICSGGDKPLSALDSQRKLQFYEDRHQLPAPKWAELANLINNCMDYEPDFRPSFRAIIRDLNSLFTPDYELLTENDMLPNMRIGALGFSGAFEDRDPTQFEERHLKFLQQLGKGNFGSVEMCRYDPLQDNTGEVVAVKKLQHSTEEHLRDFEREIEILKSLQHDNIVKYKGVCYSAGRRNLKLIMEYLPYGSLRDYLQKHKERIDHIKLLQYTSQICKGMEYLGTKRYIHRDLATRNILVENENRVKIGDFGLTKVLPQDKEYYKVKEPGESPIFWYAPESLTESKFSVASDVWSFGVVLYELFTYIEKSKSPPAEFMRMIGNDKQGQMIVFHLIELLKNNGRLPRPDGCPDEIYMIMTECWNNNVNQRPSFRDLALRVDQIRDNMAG
# Summary of the method: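 Tet-off BaF3 cells carrying a TEL (nt 1-487)–JAK2 kinase-domain fusion, grown factor-independently in DMEM with 10% Tet-approved FBS without WEHI 3B medium. Compounds were diluted to 20 μM in screening plates, and cells (50,000–200,000 cell/mL at 1.1×) were incubated 40 hr at 37 °C, 5% CO2. Alamar Blue was then added for 4-6 hours; read at 544 nm.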
# T1 sequence (O60674 849-1124 limits assumed): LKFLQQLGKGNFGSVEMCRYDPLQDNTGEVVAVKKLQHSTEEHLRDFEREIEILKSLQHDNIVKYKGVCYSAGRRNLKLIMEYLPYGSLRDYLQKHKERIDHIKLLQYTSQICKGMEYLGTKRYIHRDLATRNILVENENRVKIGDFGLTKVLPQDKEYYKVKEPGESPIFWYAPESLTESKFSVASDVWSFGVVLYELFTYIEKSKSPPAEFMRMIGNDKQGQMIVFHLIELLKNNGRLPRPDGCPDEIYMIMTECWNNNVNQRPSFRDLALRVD
SMILES,IC50 (human JAK2) [µM],IC50 (human JAK3) [µM],GI50 [1] [µM]
"Cc1cnc(Nc2ccc(N3CCOCC3)cc2)nc1Sc1ccc(CO)cc1 [Compound 220, (4-(5-methyl-2-(4-morpholinophenylao)pyrimidin-4-ylthio)phenyl)methanol]",< 0.5,< 0.1,< 5
"Cc1cnc(Nc2ccc(N3CCOCC3)cc2)nc1Sc1ccc(N2C(=O)COCC2=O)cc1 [Compound 190, 4-(4-(5-methyl-2-(4-morpholinophenylao)pyrimidin-4-ylthio)phenyl)morpholine-3,5-dione]",< 0.5,< 0.1,> 20
"Cc1cnc(Nc2ccc(N3CCOCC3)cc2)nc1Sc1ccc(C=O)cc1 [Compound 219, 4-(5-methyl-2-(4-morpholinophenylao)pyrimidin-4-ylthio)benzaldehyde]",> 1,< 0.5,< 5
"N#Cc1c(N)ncn1Cc1cccc(Sc2ccnc(Nc3ccc(N4CCOCC4)cc3)n2)c1 [Compound 199, 4-ao-1-(3-(2-(4-morpholinophenylao)pyrimidin-4-ylthio)benzyl)-1H-imiazole-5-carbonitrile]",< 1,< 0.5,< 5
"Cc1cnc(Nc2ccc(N3CCOCC3)cc2)nc1Sc1ccc(NC2CCOC2=O)cc1 (stereo not drawn) [Compound 228, 3-(4-(5-methyl-2-(4-morpholinophenylao)pyrimidin-4-ylthio)phenylao)dihydrofuran-2(3H)-one]",> 1,< 0.1,> 20
"Cc1cnc(Nc2ccc(O)cc2)nc1Sc1ccc(N)cc1 [Compound 191, 4-(4-(4-aophenylthio)-5-methylpyrimidin-2-ylao)phenol]",> 1,< 0.5,< 5
"C=CC(=O)Nc1cccc(Nc2nccc(SC)n2)c1 [Compound 7, N-(3-(4-(methylthio)pyrimidin-2-ylao)phenyl)acrylamide]",> 1,< 0.1,< 20
"Cc1cnc(Nc2ccc(N3CCOCC3)cc2)nc1Sc1cccc(CO)c1 [Compound 212, (3-(5-methyl-2-(4-morpholinophenylao)pyrimidin-4-ylthio)phenyl)methanol]",< 0.5,< 0.5,> 20
"Cc1cnc(Nc2ccc(N3CCOCC3)cc2)nc1Sc1ccc(C(C#N)N2CCN(C)CC2)cc1 (stereo not drawn) [Compound 225, 2-(4-(5-methyl-2-(4-morpholinophenylao)pyrimidin-4-ylthio)phenyl)-2-(4-methylpiperazin-1-yl)acetonitrile]",> 1,< 0.5,< 5
"c1cc(Sc2ccc(Cn3cncn3)cc2)nc(Nc2ccc(N3CCOCC3)cc2)n1 [Compound 204, 4-(4-((1H-1,2,4-triazol-1-yl)methyl)phenylthio)-N-(4-morpholinophenyl)pyrimidin-2-ae]",< 1,< 0.5,< 5
"Cc1cnc(Nc2cccc(S)c2)nc1Sc1ccc(NC(=O)CCl)cc1 [Compound 195, 2-chloro-N-(4-(2-(3-mercaptophenylao)-5-methylpyrimidin-4-ylthio)phenyl)acetamide]",> 1,< 0.1,> 20
"CON(C)C(=O)c1ccc(Sc2nc(Nc3ccc(N4CCOCC4)cc3)ncc2C)cc1 [Compound 218, N-methoxy-N-methyl-4-(5-methyl-2-(4-morpholinophenylao)pyrimidin-4-ylthio)benzamide]",> 1,< 0.5,> 20
"N#Cc1c(N)ncn1Cc1ccc(Sc2ccnc(Nc3ccc(N4CCOCC4)cc3)n2)cc1 [Compound 203, 4-ao-1-(4-(2-(4-morpholinophenylao)pyrimidin-4-ylthio)benzyl)-1H-imidazole-5-carbonitrile]",< 1,< 0.5,< 1
"Cc1cnc(Nc2ccc(N3CCOCC3)cc2)nc1Sc1ccc(C(=O)N2CCCC2)cc1 [Compound 224, (4-(5-methyl-2-(4-morpholinophenylao)pyrimidin-4-ylthio)phenyl)(pyrrolidin-1-yl)methanone]",< 1,< 0.5,> 20
"Cc1cnc(Nc2ccc(N3CCOCC3)cc2)nc1Sc1ccc(NC(=O)CO)cc1 [Compound 229, 2-hydroxy-N-(4-(5-methyl-2-(4-morpholinophenylao)pyrimidin-4-ylthio)phenyl)acetamide]",< 1,< 0.5,< 20
"NC(=O)c1ccc(Sc2ccnc(Nc3ccc(N4CCOCC4)cc3)n2)cc1 [Compound 207, 4-(2-(4-morpholinophenylao)pyrimidin-4-ylthio)benzamide]",> 1,< 0.5,> 20
"N#Cc1ncn(Cc2ccc(Sc3ccnc(Nc4ccc(N5CCOCC5)cc4)n3)cc2)c1N [Compound 202, 5-ao-1-(4-(2-(4-morpholinophenylao)pyrimidin-4-ylthio)benzyl)-1H-imidazole-4-carbonitrile]",< 1,< 0.5,< 5
"N#CCc1ccc(Sc2ccnc(Nc3ccc(N4CCOCC4)cc3)n2)cc1 [Compound 210, 2-(4-(2-(4-morpholinophenylao)pyrimidin-4-ylthio)phenyl)acetonitrile]",> 1,< 0.5,> 20
"Cc1cnc(Nc2ccc(N3CCOCC3)cc2)nc1Sc1ccc(N2CCSCC2=O)cc1 [Compound 197, 4-(4-(5-methyl-2-(4-morpholinophenylao)pyrimidin-4-ylthio)phenyl)thiomorpholin-3-one]",> 1,< 0.1,> 20
"Cc1cnc(Nc2cccc(NS(C)(=O)=O)c2)nc1Sc1ccc(CO)cc1 [Compound 226, N-(3-(4-(4-(hydroxymethyl)phenylthio)-5-methylpyrimidin-2-ylao)phenyl)methanesulfonamide]",> 1,< 0.5,< 5
"Cc1cnc(Nc2ccc(N3CCOCC3)cc2)nc1Sc1ccc(CC#N)cc1 [Compound 222, 2-(4-(5-methyl-2-(4-morpholinophenylao)pyrimidin-4-ylthio)phenyl)acetonitrile]",> 1,< 0.5,> 20
"Cc1cnc(Nc2ccc(N3CCOCC3)cc2)nc1Sc1ccc(C(C#N)N2CCOCC2)cc1 (stereo not drawn) [Compound 223, 2-(4-(5-methyl-2-(4-morpholinophenylao)pyrimidin-4-ylthio)phenyl)-2-morpholinoacetonitrile]",> 1,< 0.5,< 5

# From US8846704B2, “Thiopyrimidine-based compounds and uses thereof” (YM Biosciences Austraila Pty Ltd, priority 2007, dated 2014)
